Results on two compounds are retold here after publication PMC9822396 (Molecules, 2022).

The structures appear in SMILES notation. Where “and” joins values, the source holds several entries; their conditions need not be identical. Identical values can stand only once. Entries after “also recorded” stand apart in the source; their conditions may differ.

The target in one data set is T1, AChE (Electrophorus electricus, UniProt O42275).
T1 construct: purchased Sigma-Aldrich
Briefly: AChE inhibition (Ellman method). The data set is classed as biochemical. The note with it: read-out: Residual Activity at 10 µM (%) AChE. As to the method: (§1) All other chemicals were of reagent grade.
(§2) hMAO-A and -B activities were determined using a continuous spectrophotometric method, as described previously. […] AChE and BChE activities were assayed as described by Ellman et al., with slight modification. Reactions were performed using AChE and BChE in the 0.5 mL reaction mixtures including 0.5 mM substrate (ATCI and BTCI, respectively) and color reagent (DTNB). […] Reaction rates are expressed as changes in absorbance per min.. Inhibitory activities of AChE and BChE were measured after preincubating enzyme with inhibitors for 15 min before adding DTNB and each substrate. […]
On the technique in general: Ellman's reagent forms a yellow product with free thiols.

Data set [1] addresses T2, hMAO-B (Homo sapiens, UniProt P27338).
T2 construct: purchased Sigma-Aldrich
T2 sequence (P27338 1-520): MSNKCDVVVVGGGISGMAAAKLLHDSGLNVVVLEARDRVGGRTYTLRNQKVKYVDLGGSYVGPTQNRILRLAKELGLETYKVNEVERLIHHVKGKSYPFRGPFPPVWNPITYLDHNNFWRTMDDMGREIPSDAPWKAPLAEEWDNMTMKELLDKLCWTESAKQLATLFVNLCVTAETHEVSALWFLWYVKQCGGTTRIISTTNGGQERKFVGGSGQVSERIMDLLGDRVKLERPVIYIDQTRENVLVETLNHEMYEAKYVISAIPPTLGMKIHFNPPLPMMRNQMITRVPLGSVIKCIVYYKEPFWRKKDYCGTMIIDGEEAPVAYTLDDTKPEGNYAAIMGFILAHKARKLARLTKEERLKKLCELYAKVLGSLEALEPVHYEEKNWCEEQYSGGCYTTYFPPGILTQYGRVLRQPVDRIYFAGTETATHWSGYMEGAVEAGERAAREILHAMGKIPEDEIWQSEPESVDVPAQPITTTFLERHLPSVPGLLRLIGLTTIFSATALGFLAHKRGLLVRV
Briefly: Reversibility of hMAO-B inhibition by dialysis. Format: biochemical. The note with it: for Reversibility of hMAO-B inhibition: dialysis; for Relative activity dialyzed (AD), hMAO-B: inhibitor at ~2 times IC50, after dialysis; for Relative activity undialyzed (AU), hMAO-B: inhibitor at ~2 times IC50, before dialysis. As to the method: (§3) After preincubating compounds or reference inhibitors with hMAO-A and hMAO-B, residual activities for undialyzed and dialyzed samples were measured. Relative values for undialyzed (AU) and dialyzed (AD) activities were then calculated and compared with non-inhibitor treated controls. Reversibilities were determined by comparing the AU and AD values of inhibitors with those of references.

Another data set addresses T3, BACE1 (Homo sapiens, UniProt P56817).
T3 construct: purchased Sigma-Aldrich
Briefly: BACE1 inhibition (fluorescent activity detection kit). Format: biochemical. As to conditions: read-out: Residual Activity at 10 µM (%) BACE1.

Data set [2] has as its target T4, hMAO-A (Homo sapiens, UniProt P21397).
T4 construct: purchased Sigma-Aldrich
T4 sequence (P21397 1-527): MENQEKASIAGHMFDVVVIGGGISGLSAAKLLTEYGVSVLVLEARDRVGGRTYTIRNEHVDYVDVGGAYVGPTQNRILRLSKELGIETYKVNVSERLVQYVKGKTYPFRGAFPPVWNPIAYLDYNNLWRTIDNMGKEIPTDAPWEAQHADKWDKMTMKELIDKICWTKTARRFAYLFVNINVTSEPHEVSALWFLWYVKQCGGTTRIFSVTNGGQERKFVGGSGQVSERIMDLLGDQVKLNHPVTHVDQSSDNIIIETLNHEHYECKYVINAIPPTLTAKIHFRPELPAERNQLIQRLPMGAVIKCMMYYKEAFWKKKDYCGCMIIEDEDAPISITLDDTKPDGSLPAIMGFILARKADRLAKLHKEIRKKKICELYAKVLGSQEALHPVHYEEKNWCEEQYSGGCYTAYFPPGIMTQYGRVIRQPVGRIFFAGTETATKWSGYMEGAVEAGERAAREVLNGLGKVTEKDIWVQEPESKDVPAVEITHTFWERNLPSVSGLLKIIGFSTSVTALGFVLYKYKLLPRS
Briefly: biochemical. As to conditions: for remaining activity at 10 µM: read-out: Residual Activity at 10 µM (%) hMAO-A. As to the method:
as §1
hMAO-A and -B activities were determined using a continuous spectrophotometric method, as described previously. […] AChE and BChE activities were assayed as described by Ellman et al., with slight modification. Reactions were performed using AChE and BChE in the 0.5 mL reaction mixtures including 0.5 mM substrate (ATCI and BTCI, respectively) and color reagent (DTNB). […] Reaction rates are expressed as changes in absorbance per min.. Inhibitory activities of AChE and BChE were measured after preincubating enzyme with inhibitors for 15 min before adding DTNB and each substrate.
Inhibitory types and Ki values were determined using Lineweaver-Burk plots and secondary plots of their slopes, respectively.

In another data set the test system is MDCK cells. Description: Cytotoxicity, CCK-8 cell viability, MDCK. Format: cell-based, canine. As to conditions: normal cell line, up to 50 µM, 24 h. The text has this:
(§4) Dimethyl sulfoxide (DMSO) and 2-mercaptoethanol (2-ME) were obtained from Sigma Aldrich. Cell counting kit-8 (CCK-8) was obtained from Dojindo Laboratories (Kumamoto, Japan). Madin-Darby canine kidney (MDCK; KCLB 10034) cells, human acute promyelocytic leukemia (HL-60; KCLB 10240) cells, and human neuroblastoma cells (SH-SY5Y; KCLB 22266) were purchased from the Korean Cell Line Bank (KCLB, Seoul, Republic of Korea).
(§5) Passages were used between 10 and 30. Following trypsinization, MDCK (1 × 10^4), HL-60 (5 × 10^4), and SH-SY5Y (5 × 10^4) cells were seeded in 96-well plates and treated with 1, 3, 10, 30 and 50 µM of each inhibitor. The plates were then incubated for 24 h at 37 °C with 5% CO2, and cell viability was determined by the CCK-8 and by measuring the optical density at 450 nm using a microplate reader (Versa Max, Molecular Devices, Sunnyvale, CA, USA). The cell viability was expressed as % by comparing the absorbance of the sample to that of the control. Statistical differences between groups were analyzed by ANOVA using IBM SPSS statistics 27 and probability values (p-values) less than 0.05 were marked as significant values.

The next data set concerns HL-60 cells. Briefly: Cytotoxicity, CCK-8 cell viability, HL-60. Format: cell-based, human. As to conditions: cancer cell line, up to 50 µM, 24 h.
Excerpt: as §4, §5

The target in a further data set is T5, BChE (Equus caballus, UniProt P81908).
T5 construct: BChE from equine serum; purchased Sigma-Aldrich; host or cells: equine serum
Description: BChE inhibition (Ellman method). The data set is classed as biochemical, equine. As to conditions: read-out: Residual Activity at 10 µM (%) BChE. Here is the method:
as §1, §2

For the next data set, the system named is SH-SY5Y cells. Briefly: Cytotoxicity, CCK-8 cell viability, SH-SY5Y. The data set is classed as cell-based, human. The note with it: neuroblastoma, 24 h.
Excerpt: as §4, §5

Data set [3] can be described thus: Cytotoxicity, CCK-8 cell viability, SH-SY5Y. The data set is classed as cell-based, human. As to conditions: human, 30 µM.
Excerpt: as §4, §5

In data set [4] the target is T2, hMAO-B. Description: Kinetics of hMAO-B inhibition (Lineweaver-Burk and secondary plots). The note with it: for Inhibition type hMAO-B: Lineweaver-Burk plots; for Ki: secondary plots of Lineweaver-Burk slopes. The data set is classed as biochemical.
Data set [5] deals with T2, hMAO-B. Description: biochemical. The data set is classed as biochemical. As to conditions: for SI: hMAO-B selectivity: IC50 of hMAO-A divided by IC50 of hMAO-B; for remaining activity at 10 µM: read-out: Residual Activity at 10 µM (%) hMAO-B. Here is the method:
as §1, §2

For data set [6], the target named is T4, hMAO-A. Briefly: Kinetics of hMAO-A inhibition (Lineweaver-Burk and secondary plots). The data set is classed as biochemical. As to the method:
The kinetics of MAO-A inhibition by 13 was also investigated as above, except at 0.0075–0.12 mM of substrate concentrations. Inhibitory types and Ki values were determined using Lineweaver-Burk plots and secondary plots of their slopes, respectively.

For data set [7], the target named is T4, hMAO-A. Briefly: Reversibility of hMAO-A inhibition by dialysis. The data set is classed as biochemical. Here is the method: as §3

T3 sequence (P56817 46-501): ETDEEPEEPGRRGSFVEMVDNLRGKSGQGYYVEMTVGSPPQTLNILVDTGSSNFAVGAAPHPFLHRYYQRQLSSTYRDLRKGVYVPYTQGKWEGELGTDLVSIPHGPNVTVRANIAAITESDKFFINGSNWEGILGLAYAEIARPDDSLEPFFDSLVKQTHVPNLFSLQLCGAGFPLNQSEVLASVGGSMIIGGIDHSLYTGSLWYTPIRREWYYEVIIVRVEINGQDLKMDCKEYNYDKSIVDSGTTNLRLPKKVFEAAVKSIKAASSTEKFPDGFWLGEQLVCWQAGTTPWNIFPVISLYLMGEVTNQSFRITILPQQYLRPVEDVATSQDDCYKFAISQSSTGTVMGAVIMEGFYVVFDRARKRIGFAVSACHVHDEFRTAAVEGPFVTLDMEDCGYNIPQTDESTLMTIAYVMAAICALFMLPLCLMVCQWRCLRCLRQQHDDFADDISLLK
T5 sequence (P81908 whole entry): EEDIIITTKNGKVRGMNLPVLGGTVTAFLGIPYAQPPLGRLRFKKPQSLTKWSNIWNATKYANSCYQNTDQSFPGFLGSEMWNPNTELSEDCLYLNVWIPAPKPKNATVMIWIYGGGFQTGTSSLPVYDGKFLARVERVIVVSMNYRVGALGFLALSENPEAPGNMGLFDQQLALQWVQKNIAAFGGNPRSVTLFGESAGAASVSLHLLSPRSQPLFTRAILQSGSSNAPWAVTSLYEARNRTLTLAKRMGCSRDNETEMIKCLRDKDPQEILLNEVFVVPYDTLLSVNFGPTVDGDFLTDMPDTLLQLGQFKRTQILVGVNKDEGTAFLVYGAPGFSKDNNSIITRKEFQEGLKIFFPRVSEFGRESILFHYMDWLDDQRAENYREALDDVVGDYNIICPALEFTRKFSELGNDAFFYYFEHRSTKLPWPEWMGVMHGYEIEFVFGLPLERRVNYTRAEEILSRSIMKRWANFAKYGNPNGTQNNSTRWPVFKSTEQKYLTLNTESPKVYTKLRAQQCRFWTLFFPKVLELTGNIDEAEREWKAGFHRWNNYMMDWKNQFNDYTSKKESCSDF
T1 sequence (O42275 24-633): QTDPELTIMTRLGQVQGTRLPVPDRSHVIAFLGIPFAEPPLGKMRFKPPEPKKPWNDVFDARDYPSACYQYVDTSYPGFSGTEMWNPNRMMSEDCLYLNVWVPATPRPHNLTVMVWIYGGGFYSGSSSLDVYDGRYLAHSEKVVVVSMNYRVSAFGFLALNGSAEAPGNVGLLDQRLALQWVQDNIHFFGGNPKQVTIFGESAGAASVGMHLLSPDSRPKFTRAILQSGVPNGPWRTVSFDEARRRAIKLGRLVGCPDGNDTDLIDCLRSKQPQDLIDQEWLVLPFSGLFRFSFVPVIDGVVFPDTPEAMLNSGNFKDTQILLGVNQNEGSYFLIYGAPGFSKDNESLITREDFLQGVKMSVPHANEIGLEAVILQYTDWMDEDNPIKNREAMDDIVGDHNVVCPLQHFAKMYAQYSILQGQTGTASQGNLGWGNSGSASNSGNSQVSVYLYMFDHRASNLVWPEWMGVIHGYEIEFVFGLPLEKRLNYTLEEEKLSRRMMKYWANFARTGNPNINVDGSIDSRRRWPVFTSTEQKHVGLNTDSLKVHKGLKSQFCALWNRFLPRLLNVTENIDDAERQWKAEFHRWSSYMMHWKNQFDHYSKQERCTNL

The IC50 is the point on the concentration scale where inhibition reaches its midpoint. As usually defined, the viability is a per cent measure of how many cells are alive, often set against a control. Read a low viability as more harm to the cells. In general, Ki refers to the equilibrium dissociation constant of an inhibitor or competing ligand from its target. Low readings indicate a stronger hold on the target, high ones a looser hold on the target. Consider `COc1ccc2c(c1)OC1c3ccc(O)cc3OCC21` (stereo not drawn) [Compound 8, 3-hydroxy-9-methoxypterocarpan], for which, on AChE, the remaining activity at 10 µM is 80.6 ± 2.62%. Moreover, at hMAO-B [1], the “Reversibility of hMAO-B inhibition” value is reported as “reversible inhibitor”; the “Relative activity dialyzed (AD), hMAO-B” value turned out to be 72.7%; the “Relative activity undialyzed (AU), hMAO-B” value amounted to 29.8%. Moreover, on BACE1, the remaining activity at 10 µM is 111.4 ± 0.52%. On hMAO-A [2], the IC50 was 19900 ± 850 nM and the remaining activity at 10 µM turned out to be 64.18 ± 0.53%. The “Effect on viability of MDCK cells” value with MDCK cells is on record as “non-toxicity; also recorded: no effects on the viabilities”. The “Effect on viability of HL-60 cells” value in the data set on HL-60 cells was “non-toxicity; also recorded: no effects on the viabilities”. Besides, the remaining activity at 10 µM on BChE came to 98.4 ± 1%. For the same compound, the “Toxicity to SH-SY5Y cells” value in the data set on SH-SY5Y cells is on record as “moderate toxicity”. In data set [3] (SH-SY5Y cells), this compound registered a viability at 24 h, 30 µM of 74%. In addition, at hMAO-B [4], the “Inhibition type hMAO-B” value is reported as “competitive inhibitor” and the Ki came out at 197 ± 4 nM. In addition, at hMAO-B [5], half-maximal inhibition (IC50) required 450 ± 32 nM, the SI is listed as 44.2 and the remaining activity at 10 µM worked out at 4.17 ± 0.84%. Further, the “times higher hMAO-B inhibitory activity than 13” value at hMAO-B [5] (3-OH of 8 versus 3-OCH3 of 13) came out at 1.6 times. At hMAO-B [5] (versus maackiain IC50 of ref 36), the “times higher hMAO-B inhibition than maackiain” value worked out at 1.5 times.
On to `COc1ccc2c(c1)O[C@H]1c3ccc(OC)cc3OC[C@@H]21` [Compound 13, 3,9-dimethoxypterocarpan], for which, on AChE, the remaining activity at 10 µM worked out at 81 ± 2.44%. Also, on hMAO-B [1], the “Reversibility of hMAO-B inhibition” value is “reversible inhibitor”; the “Relative activity dialyzed (AD), hMAO-B” value is given as 73.5%; the “Relative activity undialyzed (AU), hMAO-B” value is recorded as 32.0%. For the same compound, at hMAO-A [6] (Lineweaver-Burk plots), the “Inhibition type hMAO-A” value is reported as “competitive inhibitor”. In addition, the affinity on hMAO-A [6] (secondary plots of Lineweaver-Burk slopes), expressed as Ki, was 617 ± 23 nM. On BACE1, the remaining activity at 10 µM is 101.48 ± 0.01%. For the same compound, on hMAO-A [2], half-maximal inhibition (IC50) required 1490 ± 21 nM and the remaining activity at 10 µM was determined as 11.6 ± 2.6%. For the same compound, at hMAO-A [7] (dialysis), the “Reversibility of hMAO-A inhibition” value is “reversible inhibitor”. Moreover, on hMAO-A [7] (inhibitor at ~2 times IC50, after dialysis), the “Relative activity dialyzed (AD), hMAO-A” value came out at 75.8%. Besides, the “Relative activity undialyzed (AU), hMAO-A” value at hMAO-A [7] (inhibitor at ~2 times IC50, before dialysis) is given as 25.4%. In the data set with MDCK cells, the “Effect on viability of MDCK cells” value is listed as “non-toxicity; also recorded: no effects on the viabilities”. Moreover, the “Effect on viability of HL-60 cells” value in the data set with HL-60 cells is reported as “non-toxicity; also recorded: no effects on the viabilities”. Also, the remaining activity at 10 µM on BChE amounted to 88.5 ± 1.96%. For the same compound, the “Toxicity to SH-SY5Y cells” value in the data set with SH-SY5Y cells is reported as “moderate toxicity”. In [3] (SH-SY5Y neuroblastoma cells), this compound displayed a viability at 24 h, 30 µM of 71.1%. At hMAO-B [4], the “Inhibition type hMAO-B” value is given as “competitive inhibitor”; the Ki was 210 nM and 212 nM. Further, on hMAO-B [5], it took 720 ± 28 nM to reach half-maximal inhibition (IC50), the SI was 2.07 and the remaining activity at 10 µM turned out to be 4.05 ± 1.91%. Also, the “times higher hMAO-B inhibitory activity than 12” value on hMAO-B [5] (9-OCH3 of 13 versus 8,9-methylenedioxy of 12) stood at 4.7 times.
